{"source": "patent US20020173468A1", "about": "“MODIFIED CYTOSTATIC AGENTS” (priority 1996, published 2002)", "key": {"[1]": {"test_system": "large-cell human lung tumour xenograft LXFL 529", "test": "In-vivo inhibition of tumour growth in the nude mouse model", "parameters": "species or system athymic nude mice (NMRI nu/nu strain)", "conditions": "for Relative tumour volume on day 21: control 1137; for Survival time: individual animals", "excerpt": "3. In-vivo Inhibition of Tumour Growth in the Nude Mouse Model\nFor all in-vivo experiments for investigation of the inhibition of tumour growth, athymic nude mice (NMRI nu/nu strain) were used. The selected large-cell lung carcinoma LXFL 529 was developed by serial passage in nude mice. The human origin of the tumour was confirmed by isoenzymatic and immunohistochemical methods.\nThe tumour was implanted subcutaneously in both flanks of nu/nu nude mice 6 to 8 weeks old. The treatment was started, depending on the doubling time, as soon as the tumours had reached a diameter of 5-7 mm. The mice were assigned to the treatment group and to the control group (5 mice per group with 8-10 assessable tumours) by randomization. The individual tumours of the control group all grew progressively.\nThe size of the tumours was measured in two dimensions by means of a slide gauge. The tumour volume, which correlated well with the cell count, was then used for all evaluations. The volume was calculated according to the formula “length×breadth×breadth/2” ([a×b^2]/2, a and b represent two diameters arranged at right angles).\nThe values of the relative tumour volume (RTV) were calculated for each individual tumour by dividing the tumour size on day X by the tumour size on day 0 (at the time of randomization). The mean values of the RTV were then used for further evaluation.\nThe inhibition of the increase in the tumour volume (tumour volume of the test group/control group, T/C, in per cent) was the final measured value.\nThe administration of the compounds was carried out intraperitoneally (i.p.) on days 1, 2 and 3 after randomization."}, "[2]": {"test_system": "mouse bone marrow stem cells", "test": "Inhibition of the CSF-induced proliferation of mouse bone marrow stem cells (colony formation)", "assay_type": "cell-based", "conditions": "recombinant murine GM-CSF, 7 days", "protocol": "2. Haematopoietic Activity of Conjugates in Comparison with the Basic Active Compound\nBone marrow cells were rinsed from mouse femurs. 10^5 cells were incubated in McCoy 5A medium (0.3% agar) together with recombinant murine GM-CSF (Genzyme; stem cell colony formation) and the substances (10^−4 to 100 μg/ml) at 37° C. and 7% CO2. 7 days later, the colonies ([…]50 cells) and clusters (17-50 cells) were counted."}, "[3]": {"test_system": "HT 29 human colonic tumour cell line", "test": "Growth inhibition test (MTT) for cytotoxic properties, HT 29", "assay_type": "cell-based", "conditions": "HT 29 cells", "protocol": "(§1) 1. Growth Inhibition Test for the Determination of Cytotoxic Properties\n(§2) They were then trypsinized and taken up in RPMI plus 10% FCS to give a cell count of 50,000 cells/ml. 100 μl of cell suspension/well were added to a 96 microwell plate and incubated for 1 day at 37° C. in a CO2 incubator. A further 100 μl of RPMI medium and 1 μl of DMSO were then added with the test substances. The growth was checked after day 3 and day 6. To do this, 40 μl of MTT solution (3-(4,5-dimethylthiazol-2-yl)-2,5-diphenyl-tetrazolin bromide) were added to each microwell at a starting concentration of 5 mg/ml of H2O. Incubation was carried out at 37° C. for 5 hours in the CO2 incubator. The medium was then aspirated and 100 μl of i-propanol/well were added. After shaking for 30 min with 100 μl of H2O, the extinction was measured at 540 nm using a Titertek Multiskan MCC/340 (flow).\n(§3) The cytotoxic action is indicated in Table 1 as an IC50 value in each case for the SW 480 and HT 29 and B16F10 cell lines: […]"}, "[4]": {"test_system": "B16F10 mouse melanoma cell line", "test": "Growth inhibition test (MTT) for cytotoxic properties, B16F10", "assay_type": "cell-based", "conditions": "B16F10 cells", "protocol": "as §1, §2, §3"}, "[5]": {"test_system": "SW 480 human colonic tumour cell line", "test": "Growth inhibition test (MTT) for cytotoxic properties, SW 480", "assay_type": "cell-based", "conditions": "SW 480 cells", "protocol": "as §1, §2, §3"}, "[6]": {"conditions": "6.25 mg/kg/day (MTD) i.p. days 1-3"}}, "note": "“And” between values parts separate entries of the source, which are not always exact repeats. Equal entries are not always repeated."}
{"molecule": "CC[C@@]1(OC(=O)[C@@H](NC(=O)[C@H](CCCCN)NC(=S)Nc2ccc(O)cc2)C(C)C)C(=O)OCc2c1cc1n(c2=O)Cc2cc3ccccc3nc2-1.Cl", "note": "[Example 4.4), 20-O-[N^α-(4-Hydroxy-phenylamino-thiocarbonyl)-lysyl-valyl]-camptothecin, hydrochloride]", "values": [{"measurement": "Relative body weight on day 21", "setting": "[1]; 3.125 mg/kg/day i.p. days 1-3", "value": "105.8 % of day 0"}, {"measurement": "Relative tumour volume on day 21", "setting": "[1]; 3.125 mg/kg/day i.p. days 1-3", "value": "69.5 % of day 0"}, {"measurement": "Survival time", "setting": "[1]; 3.125 mg/kg/day i.p. days 1-3", "value": ">43 >43 days"}, {"measurement": "Relative body weight on day 21", "setting": "[1]; [6]", "value": "113.0 % of day 0"}, {"measurement": "Relative tumour volume on day 21", "setting": "[1]; [6]", "value": "0.2 % of day 0"}, {"measurement": "Survival time", "setting": "[1]; 6.25 mg/kg/day (MTD) i.p. days 1-3, hydrochloride", "value": "7 days and > 43 days and >43 >43 days"}, {"measurement": "Maximum tolerable dose (MTD)", "setting": "[1]; i.p. on days 1, 2 and 3, nude mice", "value": 6.25, "unit": "mg/kg/day"}, {"measurement": "Therapeutic efficacy against LXFL 529 xenograft (in words)", "setting": "[1]; therapy at the MTD and at half the MTD", "value": "tumour remission"}, {"measurement": "IC50, inhibition of the CSF-induced proliferation of mouse bone marrow stem cells", "setting": "[2]", "value": 0.01, "unit": "µg/mL"}, {"measurement": "IC50", "setting": "[3]", "value": 200, "unit": "nM"}, {"measurement": "IC50", "setting": "[4]", "value": 600, "unit": "nM"}, {"measurement": "IC50", "setting": "[5]", "value": 300, "unit": "nM"}]}
